Where two headings read alike, the source gives them in different places.
Key:
NCI-H716 cells = experiment: cells; assay type: cell-based, Human
STC-1 cell line = assay type: cell-based, mouse
DLD-1 = experiment: cells; assay type: cell-based
SW480 = experiment: cells; assay type: cell-based
HCT116 = experiment: cells; assay type: cell-based
[1] = tested on: HCT116 cells treated with a GSK3β inhibitor; experiment: cells; assay type: cell-based; details: assay number 26; GSK3b inhibitor pretreated
Colo320 = experiment: cells; assay type: cell-based
HT-29 = experiment: cells; assay type: cell-based
RKO = experiment: cells; assay type: cell-based
SNU-C1 = experiment: cells; assay type: cell-based
[2] = tested on: endothelial tube formation in co-cultures of ECFCs and ADSCs treated with VEGF; experiment: cells; assay type: cell-based, human
[3] = tested on: ECFC/ADSC co-culture cell nuclei number
HeLa cells = experiment: cells; assay type: cell-based

Clc1ccc(C(Cn2ccnc2)OCc2c(Cl)cccc2Cl)c(Cl)c1 (centres unmarked) [NCGC00179642-03]
hNCI-H716 GLP1 Secretion IC50/EC50 (NCI-H716 cells; assay number 12): > 40 µM | mSTC-1 GLP1 Secretion IC50/EC50 (STC-1 cell line; assay number 13): > 40 µM | Basal_Viability ATP DLD-1 IC50/EC50 (DLD-1; assay number 23): 2.3554 µM | Basal_Viability ATP SW480 IC50/EC50 (SW480; assay number 24): 2.6011 µM | Basal_Viability ATP HCT116 IC50/EC50 (HCT116; assay number 25, basal): 1.5939 µM | GSK3b inh pretreated_Viability ATP HCT116 IC50/EC50 [1]: 1.3984 µM | Basal_Viability ATP Colo 320 IC50/EC50 (Colo320; assay number 27): 1.8168 µM | Basal_Viability ATP HT-29 IC50/EC50 (HT-29; assay number 28): 5.0032 µM | Basal_Viability ATP RKO IC50/EC50 (RKO; assay number 29): 4.0107 µM | Basal_Viability ATP SNU-C1 IC50/EC50 (SNU-C1; assay number 30): 0.8861 µM

COCC(=O)O[C@]1(CCN(C)CCCc2nc3ccccc3[nH]2)CCc2cc(F)ccc2[C@@H]1C(C)C [NCGC00161420-06]
VEGF_ADSC\ECFC Angio CD31 TubeArea IC50/EC50 [2]: > 10 µM | hNCI-H716 GLP1 Secretion IC50/EC50 (NCI-H716 cells; assay number 12): > 40 µM | mSTC-1 GLP1 Secretion IC50/EC50 (STC-1 cell line; assay number 13): 8.237 µM | Basal_Viability ATP DLD-1 IC50/EC50 (DLD-1; assay number 23): 7.2629 µM | Basal_Viability ATP SW480 IC50/EC50 (SW480; assay number 24): 4.5426 µM | Basal_Viability ATP HCT116 IC50/EC50 (HCT116; assay number 25, basal): 12.3743 µM | GSK3b inh pretreated_Viability ATP HCT116 IC50/EC50 [1]: 5.3311 µM | Basal_Viability ATP Colo 320 IC50/EC50 (Colo320; assay number 27): 10.5076 µM | Basal_Viability ATP HT-29 IC50/EC50 (HT-29; assay number 28): 3.0782 µM | Basal_Viability ATP RKO IC50/EC50 (RKO; assay number 29): 6.7187 µM | Basal_Viability ATP SNU-C1 IC50/EC50 (SNU-C1; assay number 30): 5.4372 µM | VEGF_ADSC\ECFC Angio Hoechst NucArea IC50/EC50 [3]: > 10 µM

C[C@@H]1CN(CCCn2c3ccccc3c3ccccc32)C[C@H](C)N1 [NCGC00025187-02]
hNCI-H716 GLP1 Secretion IC50/EC50 (NCI-H716 cells; assay number 12): 6.3711 µM | mSTC-1 GLP1 Secretion IC50/EC50 (STC-1 cell line; assay number 13): > 40 µM | Basal_Viability ATP DLD-1 IC50/EC50 (DLD-1; assay number 23, basal): 9.7994 µM | Basal_Viability ATP SW480 IC50/EC50 (SW480; assay number 24, basal): 2.353 µM | Basal_Viability ATP HCT116 IC50/EC50 (HCT116; assay number 25, basal): 10.5492 µM | GSK3b inh pretreated_Viability ATP HCT116 IC50/EC50 [1]: 3.848 µM | Basal_Viability ATP Colo 320 IC50/EC50 (Colo320; assay number 27, basal): 15.9001 µM | Basal_Viability ATP HT-29 IC50/EC50 (HT-29; assay number 28, basal): 4.021 µM | Basal_Viability ATP RKO IC50/EC50 (RKO; assay number 29, basal): 2.184 µM | Basal_Viability ATP SNU-C1 IC50/EC50 (SNU-C1; assay number 30, basal): 6.023 µM

Cl.Oc1ccc([C@H]2CNCc3c2ccc(O)c3O)cc1O [NCGC00183049-01]
hNCI-H716 GLP1 Secretion IC50/EC50 (NCI-H716 cells; assay number 12): 5.9462 µM | mSTC-1 GLP1 Secretion IC50/EC50 (STC-1 cell line; assay number 13): > 20 µM | Hela CellCycMod PI 2N IC50/EC50 (HeLa cells; assay number 14, 2N): > 10 µM | Hela CellCycMod PI S Phase IC50/EC50 (HeLa cells; assay number 15, S phase): > 10 µM | Hela CellCycMod PI 4N IC50/EC50 (HeLa cells; assay number 16, 4N): > 10 µM | Hela CellCycMod PI MI IC50/EC50 (HeLa cells; assay number 17, MI): > 10 µM | Hela CellCycMod PI Cell Number IC50/EC50 (HeLa cells; assay number 18, cell number): > 10 µM | Basal_Viability ATP DLD-1 IC50/EC50 (DLD-1; assay number 23): > 20 µM | Basal_Viability ATP SW480 IC50/EC50 (SW480; assay number 24): > 20 µM | Basal_Viability ATP HCT116 IC50/EC50 (HCT116; assay number 25, basal): > 20 µM | GSK3b inh pretreated_Viability ATP HCT116 IC50/EC50 [1]: 0.1876 µM | Basal_Viability ATP Colo 320 IC50/EC50 (Colo320; assay number 27): 0.4662 µM | Basal_Viability ATP HT-29 IC50/EC50 (HT-29; assay number 28): > 20 µM | Basal_Viability ATP RKO IC50/EC50 (RKO; assay number 29): 0.03316 µM | Basal_Viability ATP SNU-C1 IC50/EC50 (SNU-C1; assay number 30): > 20 µM

CCc1oc2ccccc2c1C(=O)c1cc(Br)c(O)c(Br)c1 [NCGC00013895-08]
VEGF_ADSC\ECFC Angio CD31 TubeArea IC50/EC50 [2]: > 10 µM | hNCI-H716 GLP1 Secretion IC50/EC50 (NCI-H716 cells): > 40 µM | mSTC-1 GLP1 Secretion IC50/EC50 (STC-1 cell line): > 40 µM | Hela CellCycMod PI 2N IC50/EC50 (HeLa cells): > 10 µM | Hela CellCycMod PI 4N IC50/EC50 (HeLa cells): > 10 µM | Hela CellCycMod PI Cell Number IC50/EC50 (HeLa cells): > 10 µM | Hela CellCycMod PI MI IC50/EC50 (HeLa cells): > 10 µM | Hela CellCycMod PI S Phase IC50/EC50 (HeLa cells): > 10 µM | Basal_Viability ATP DLD-1 IC50/EC50 (DLD-1): 0.2675 µM | Basal_Viability ATP SW480 IC50/EC50 (SW480): 1.7408 µM | Basal_Viability ATP HCT116 IC50/EC50 (HCT116): 1.057 µM | Basal_Viability ATP Colo 320 IC50/EC50 (Colo320): > 20 µM | Basal_Viability ATP HT-29 IC50/EC50 (HT-29): 1.1416 µM | Basal_Viability ATP RKO IC50/EC50 (RKO): 0.1312 µM | Basal_Viability ATP SNU-C1 IC50/EC50 (SNU-C1): 0.1053 µM | VEGF_ADSC\ECFC Angio Hoechst NucArea IC50/EC50 [3]: > 10 µM

CCN(CC)CCOc1ccc(C(O)(Cc2ccc(Cl)cc2)c2ccc(C)cc2)cc1 (centres unmarked) [NCGC00165907-03]
VEGF_ADSC\ECFC Angio CD31 TubeArea IC50/EC50 [2]: 3.2104 µM | hNCI-H716 GLP1 Secretion IC50/EC50 (NCI-H716 cells; assay number 12): 36.1068 µM | mSTC-1 GLP1 Secretion IC50/EC50 (STC-1 cell line; assay number 13): > 40 µM | Hela CellCycMod PI 2N IC50/EC50 (HeLa cells; assay number 14, 2N): > 10 µM | Hela CellCycMod PI S Phase IC50/EC50 (HeLa cells; assay number 15, S phase): > 10 µM | Hela CellCycMod PI 4N IC50/EC50 (HeLa cells; assay number 16, 4N): > 10 µM | Hela CellCycMod PI MI IC50/EC50 (HeLa cells; assay number 17, MI): > 10 µM | Hela CellCycMod PI Cell Number IC50/EC50 (HeLa cells; assay number 18, cell number): > 10 µM | Basal_Viability ATP DLD-1 IC50/EC50 (DLD-1; assay number 23, basal): > 20 µM | Basal_Viability ATP SW480 IC50/EC50 (SW480; assay number 24, basal): 3.7592 µM | Basal_Viability ATP HCT116 IC50/EC50 (HCT116; assay number 25, basal): > 20 µM | GSK3b inh pretreated_Viability ATP HCT116 IC50/EC50 [1]: 3.7372 µM | Basal_Viability ATP Colo 320 IC50/EC50 (Colo320; assay number 27, basal): 8.9928 µM | Basal_Viability ATP HT-29 IC50/EC50 (HT-29; assay number 28, basal): 3.1665 µM | Basal_Viability ATP RKO IC50/EC50 (RKO; assay number 29, basal): 0.2987 µM | Basal_Viability ATP SNU-C1 IC50/EC50 (SNU-C1; assay number 30, basal): 2.4577 µM | VEGF_ADSC\ECFC Angio Hoechst NucArea IC50/EC50 [3]: 6.977 µM

Clc1ccccc1C(c1ccccc1)(c1ccccc1)n1ccnc1 [NCGC00015251-13]
IC50/EC50, VEGF_ADSC\ECFC Angio CD31 TubeArea (assay number 2) [2]: 3.0384 µM | IC50/EC50, hNCI-H716 GLP1 Secretion (assay number 12) (NCI-H716 cells; concentration response): 20.2249 µM | IC50/EC50, mSTC-1 GLP1 Secretion (assay number 13) (STC-1 cell line; concentration response): > 40 µM | IC50/EC50, Hela CellCycMod PI 2N (assay number 14) (HeLa cells; 2N): > 10 µM | IC50/EC50, Hela CellCycMod PI 4N (assay number 16) (HeLa cells; 4N): > 10 µM | IC50/EC50, Hela CellCycMod PI Cell Number (assay number 18) (HeLa cells; Cell Number): > 10 µM | IC50/EC50, Hela CellCycMod PI MI (assay number 17) (HeLa cells; MI): > 10 µM | IC50/EC50, Hela CellCycMod PI S Phase (assay number 15) (HeLa cells; S Phase): > 10 µM | IC50/EC50, VEGF_ADSC\ECFC Angio Hoechst NucArea (assay number 3) [3]: > 10 µM

Source: PMC4503722, “Novel Phenotypic Outcomes Identified for a Public Collection of Approved Drugs from a Publicly Accessible Panel of Assays” (PLoS ONE, 2015)
